Earlier results as cited in PMC11320581 (ACS Infectious Diseases, 2024).

System: M. tuberculosis gyrase with single-resistance mutations at GyrA Ala90 and Asp94
Conditions: cited from earlier work

SMILES: C[C@@H]1CN2c3c(cc4c(N5C(=O)OC[C@@H]5C)noc4c3F)CC3(C(=O)NC(=O)NC3=O)[C@H]2[C@H](C)O1 [zoliflodacin, Zoliflodacin]
- maximal double-stranded DNA scission with fluoroquinolone-resistant gyrases, fold higher than wild-type: 2- to 5 fold
